Experimental data: patent publication US10716783B2, “Prolylhydroxylase/ATF4 inhibitors and methods of use for treating neural cell injury or death and conditions resulting therefrom” (CORNELL UNIVERSITY, priority 2013, dated 2020)
Read-outs that look alike come from different tables or passages of the source.

Columns and labels:
[1] = test system: primary cortical neurons; assay: Hemin-induced toxicity in primary cortical neurons (MTT, LIVE/DEAD); type: cell-based; details: for EC50: primary cortical neurons, MTT assay, read-out: EC50 for abrogating hemin toxicity
Source text: (§1) FIGS. 1A-1L: Structurally diverse HIF PHD inhibitors stabilize HIF-1 and abrogate toxicity induced by hemin, a byproduct of blood breakdown, in cortical neurons hippocampal neuroblasts and striatal neuroblasts (not shown).
(§2) Secondary injury from ICH has been attributed to hemin, a breakdown product of hemoglobin (from lysed red blood cells). To investigate the mechanisms of hemin toxicity to neurons in vitro, this experiment exposed primary cortical neurons, immortalized hippocampal neuroblasts (HT22 cells), and immortalized striatal neuroblasts (Q7 cells) to hemin for 24 hours. As expected, a dose dependent loss in viability as measured by MTT reduction or LIVE/DEAD assay in all three cell types was observed. […] To examine whether iron-dependent HIF PHD enzymes can be modulated to protect neurons from hemin-induced toxicity, this experiment examined structurally diverse inhibitors of the HIF PHDs: desferoxamine, cyclopirox, and dihydroxybenzoic acid. […] To test this notion further using a chemical biological approach, the protective effects of cyclopirox, a HIF PHD inhibitor, and a cyclopirox analog with no PHD inhibitory activity but with similar metal binding affinity to cyclopirox were compared. As expected, only the cyclopirox analog with PHD inhibitory activity was neuroprotective.

[2] = test system: immortalized hippocampal neuroblasts (HT22 cells); assay: Hemin-induced toxicity in hippocampal neuroblasts (MTT); type: cell-based; details: MTT assay, read-out: EC50 for abrogating hemin toxicity
Source text: as §1
as §2, with “neuroprotective. […]” for “neuroprotective.”

[3] = test system: immortalized striatal neuroblasts (Q7 cells); assay: Hemin-induced toxicity in striatal neuroblasts (MTT); type: cell-based; details: MTT assay, read-out: EC50 for abrogating hemin toxicity
Source text: as §1, §2

[4] = test system: HIF-1 protein; assay: HIF-1 protein stabilisation in primary neurons (Western blot); type: cell-based; details: primary neurons, Western blot
Source text: FIGS. 1A-1L: Structurally diverse HIF PHD inhibitors stabilize HIF-1 and abrogate toxicity induced by hemin, a byproduct of blood breakdown, in cortical neurons hippocampal neuroblasts and striatal neuroblasts (not shown). […] FIGS. 6A-6I. […] Expression of ATF4 was forced into primary neurons, which induces death of these neurons by MTT assay (FIG. 6D) or LIVE/DEAD staining, Green is live, Red is dead (FIG. 6E).

[5] = test system: HIF PHDs; assay: ODD-luciferase reporter mice, in vivo bioluminescence imaging and tissue lysates; details: in vivo bioluminescence imaging; intraperitoneal; adaptoquin 30 mg/kg
Source text: FIGS. 3A-3G. Validation of adaptoquin as a novel HIF PHD inhibitor. […] Under steady state conditions, activity of HIF PHD2 with its co-substrate 2-oxoglutarate involves two peaks that represent non-hydroxylated and hydroxylated peptide. The hydroxylated peptide disappears in the presence of HIF PHD2 inhibition by adaptoquin. […] The reporter contains the ODD domain of HIF-1 which confers HIF PHD regulated stability on it. It is expressed in all cells of the body, but is destabilized in the absence of HIF PHD inhibition and stabilized in its presence. Quantitative measurements confirm stability of the ODD-luc in brain, kidney and liver (FIGS. 3D and 3E.).
To identify HIF PHD inhibitors suitable for testing in ICH, the experiment first sought to identify which of the known HIF PHD inhibitors could penetrate the blood brain barrier to inhibit HIF PHD activity in the CNS. To monitor HIF PHD activity dynamically, the experiment utilized mice that had previously been engineered to ubiquitously express the oxygen degradation domain (ODD) of HIF-1α fused to firefly luciferase. The ODD domain contains proline 402 and 564, which are hydroxylated by the HIF PHDs to degrade HIF-1 or the ODD-luciferase. Accordingly, these mice have been used previously to track HIF PHD activity in diverse organs in vivo using in vivo bioluminescence imaging.
To verify that the changes in light in the brain reflect parenchymal changes in ODD-luciferase levels rather than increases in changes in skin or dural ODD-luciferase, ODD-luciferase activity was measured normalized to total protein in lysates from distinct brain regions using a luminometer.

[6] = test system: HIF PHDs; assay: ODD-luciferase cell based assay

Compound | EC50 [1] [µM] | EC50 [2] [µM] | EC50 [3] [µM] | Stabilisation of HIF-1 protein [4] | ODD-luciferase activity in brain [5] | ODD-luciferase activity in cell based assays [6] | EC50 ([1]; Primary cortical neuron) [µM] | Prevention of hemin-induced death ([1]; neurons, FIGS. 1M, 1O-1R)
CC(=O)N(O)CCCCCNC(=O)CCC(=O)N(O)CCCCCNC(=O)CCC(=O)N(O)CCCCCN [Desferoxamine] | 34.1 | 50.8 | 26.7 | stabilize HIF-1 protein | failed to increase ODD-luciferase activity in the brain | induced the ODD-luciferase activity in cell based assays |  | 
Cc1cc(C2CCCCC2)n(O)c(=O)c1 [cyclopirox] |  |  |  | stabilize HIF-1 protein | failed to increase ODD-luciferase activity in the brain | induced the ODD-luciferase activity in cell based assays | 1.4 | prevents hemin-induced death
